Earlier results on one compound are cited in patent publication US20210046025A1, “Injection for Protecting Ischemic Myocardium and Preparation Method thereof” (priority 2018, published 2021).

The conditions of data set [1]: first-pass metabolism elimination.
In data set [2] the test system is ischemia/reperfusion myocardial infarction. As to conditions: large animal models, clinically relevant reperfusion (Min Xie et al., Circulation 2014).

Regarding `O=C(CCCCCCC(=O)Nc1ccccc1)NO` [N-suberoylanilide hydroxamic acid], the “Solubility in oil and water” value was “insoluble in both oil and water”; the Water solubility entry is “poor”. Moreover, in data set [1], the Oral bioavailability entry is on record as “very low”. The “Effect on myocardial infarction area” value in data set [2] is listed as “reduce myocardial infarction area”.
